Test results: PMC11327230, “Scalability study on [^133La]LaCl3 production with a focus on potential clinical applications” (EJNMMI Radiopharmacy and Chemistry, 2024)

Tests used:
[1] = 200 MBq; ref Afshar-Oromieh et al. [2016]; cited from earlier work
[2] = Stability of ^133La-PSMA radioconjugates in human serum, by radio-TLC; format: in vitro ADME; settings: for stability in serum: ^133La-radioconjugate, up to / after 24 h; for HS stability 1 h / HS stability 4 h / HS stability 24 h: human serum/PBS pH 7, 37 °C, tested thrice
Description: Apparent molar activity (AMA) was quantified by titration with the macropa chelator in combination with radio-TLC. 3–10 µL [^133La]LaCl3 (4–7 MBq, approximately 10 MBq at EOB) were added to a buffered solution (ammonium acetate 200 mM, pH 6, total volume 100 µL) containing different chelator concentrations: 0.20 µM, 0.40 µM, 0.80 µM and 1.60 µM. These solutions were mixed at 500 rpm for 15 min at room temperature. The formed [^133La]La-macropa complex was analyzed using silica gel coated aluminum plates and developed with 50 mM EDTA as eluent. While the free lanthanum runs to the front, the complex remains at the start.
To assess the serum stability of both radiolabeled compounds, 75 µL of the ^133La-PSMA radioconjugates, accounting for ca. 50 MBq ^133La, were added to 75 µL of PBS buffer pH 7 and 150 µL of human serum and mixed at 500 rpm for 24 h at 37 °C. Silica gel plates were spotted after 1 h, 4 h and 24 h to evaluate the evolution of the complex stability. Each ^133La-PSMA radioligand and its molar activity was tested thrice.

[3] = as above; format: in vitro ADME; settings: after 24 h in human serum, radio-TLC (Fig. 11)

Row | Structure (SMILES) | effective dose [1] | stability in serum ([2]; molar activity not given) | HS stability 1 h ([2]; molar activity 40 GBq/µmol) | HS stability 1 h ([2]; molar activity 80 GBq/µmol) | HS stability 4 h ([2]; molar activity 40 GBq/µmol) | HS stability 4 h ([2]; molar activity 80 GBq/µmol) | HS stability 24 h ([2]; molar activity 40 GBq/µmol) | HS stability 24 h ([2]; molar activity 80 GBq/µmol) | stability in serum ([2]; molar activity not stated in the sentence) | stability in serum ([2]; molar activity not stated in the sentence, listed as mcp-M-PSMA) | free [^133Ba]Ba^2+ as share of the total radioactivity [3]
1 | O=C([O-])CN(CCN(CC(=O)[O-])Cc1cc(CCC(=O)NCCCCCC(=O)NCCCC[C@H](NC(=O)N[C@@H](CCC(=O)O)C(=O)O)C(=O)O)ccc1[O-])Cc1cc(CCC(=O)O)ccc1[O-].[68Ga+3].[OH3+] [[^68Ga]Ga-PSMA-11] | 4.7 mSv | – | – | – | – | – | – | – | – | – | –
2 | O=C(O)CC[C@H](NC(=O)N[C@@H](CCCCNC(=O)[C@H](Cc1ccc2ccccc2c1)NC(=O)[C@H]1CC[C@H](CNC(=O)CN2CCN(CC(=O)O)CCN(CC(=O)O)CCN(CC(=O)O)CC2)CC1)C(=O)O)C(=O)O [[^133La]La-PSMA-617] | – | > 98.5 ± 0.3% | 99.37 ± 0.12% | 99.57 ± 0.12% | 99.40 ± 0.01% | 99.60 ± 0.08% | 97.37 ± 0.17% | 98.5 ± 0.3% | – | – | –
3 | O=C(O)CCC(NC(=O)NC(CCCCNC(=O)C(Cc1ccc2ccccc2c1)NC(=O)C1CCC(CNC(=O)CCCCn2cc(COc3cc(CN4CCOCCOCCN(Cc5cccc(C(=O)O)n5)CCOCCOCC4)nc(C(=O)O)c3)nn2)CC1)C(=O)O)C(=O)O (centres unmarked) [[^133La]La-mcp-M-PSMA] | – | – | 100 ± 0% | 99.80 ± 0.01% | 100 ± 0% | 99.83 ± 0.08% | 99.57 ± 0.25% | 99.20 ± 0.08% | > 99% | > 99.20 ± 0.08% | –
4 | [133La+3].[Cl-].[Cl-].[Cl-] [[^133La]LaCl3] | – | – | – | – | – | – | – | – | – | – | 1.1%
